Source: EP3345917A1, “ANTIPROTOZOAL COMPOUNDS” (Bacoba AG, priority 2017, dated 2018)
Read-outs that look alike come from different tables or passages of the source. Non-standard residues stand in square brackets, D forms with d. Residues, ends and D or L forms follow the SMILES beside them. *: point of attachment. Hexenoyl(2E,4S-Me) = CC[C@H](C)/C=C/C(=O)*; Leu(3R-OH) = CC(C)[C@@H](O)[C@H](N)C(=O)O; NH((S)CH(Me)CH2NMe2) = C[C@@H](CN(C)C)N*; Gly(octyl) = CCCCCCCC[C@H](N)C(=O)O; X16 = COc1ccc2cc(C(=O)*)c(=O)oc2c1; Benzoyl(4-F) = O=C(c1ccc(F)cc1)*; hCha = N[C@@H](CCC1CCCCC1)C(=O)O; X19 = O=C(c1ccnc2cc(Cl)ccc12)*; Pyrrole2CO = O=C(c1ccc[nH]1)*; X20 = O=C(c1ccc2[nH]ccc2c1)*; X15 = O=C(c1ccc2cccnc2c1)*; X17 = C[C@@H](CN1CCOCC1)N*; Aib = CC(C)(N)C(=O)O; Bz = O=C(c1ccccc1)*; βAla = NCCC(=O)O

Experiments:
[1] = system: Trypanosoma brucei rhodesiense (STIB 900 strain); assay: Alamar Blue assay against Trypanosoma brucei rhodesiense grown in axenic medium; type: cell-based; conditions: In vitro inhibition, read-out: T.b.rhod.
Procedure, shortened: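 T. b. rhodesiense STIB 900 cultured in axenic medium and exposed to samples in an Alamar Blue viability assay, run in triplicate. IC50 calculated from the readout; melarsoprol served as reference drug.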

Plasmodium falciparum = assay: 3H-hypoxanthine incorporation assay against Plasmodium falciparum; type: cell-based; conditions: In vitro inhibition, read-out: P.falc NF5
Method: (§1) Tests were done in triplicate.
IC50 values were calculated by linear interpolation.

[2] = system: Axenically grown Leishmania donovani amastigotes (strain MHOM/ET/67/L82); assay: Axenic Leishmania donovani amastigote resazurin assay; type: cell-based; conditions: In vitro inhibition, read-out: L.don. ax
Procedure, shortened: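 Strain MHOM/ET/67/L82 amastigotes grown axenically and tested in triplicate by resazurin assay. Plates developed 2-4 hours, fluorescence read at 536 nm excitation/588 nm emission and expressed as percentage of negative control.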

[3] = system: intracellular Leishmania donovani (L.don. InMac); assay: Intracellular Leishmania donovani assay (L.don. InMac); type: cell-based; conditions: In vitro inhibition
Excerpt: as §1

[4] = system: Trypanosoma cruzi trypomastigote forms (Tulahuen strain); assay: Intracellular Trypanosoma cruzi assay in L6-cells, beta-galactosidase/CPRG readout; type: cell-based; conditions: In vitro inhibition, read-out: T.cruzi.
Procedure, shortened: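 L6 rat myoblasts infected with Tulahuen C2C4 LacZ T. cruzi; after incubation, CPRG/Nonidet substrate added and colour developed 2–6 h. Absorbance at 540 nm; IC50 calculated; triplicate tests.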

[5] = Cytotoxicity assay on L6-cells (Alamar Blue); conditions: rat, Cytotox L6, Cytotoxicity against rat myoblast cells (L6)

| SMILES | IC50 [1] [nM] | IC50 (Plasmodium falciparum) [nM] | IC50 [2] [nM] | IC50 [3] [nM] | IC50 [4] [nM] | IC50 ([2]; axenic Leishmania donovani) [nM] | IC50 at 70 h [5] [µM] |
| --- | --- | --- | --- | --- | --- | --- | --- |
| CCCCCCCC[C@H](NC(=O)[C@@H]1CCCN1C(=O)c1ccnc2cc(Cl)ccc12)C(=O)N[C@@H](CC(C)C)C(=O)NC(C)(C)C(=O)N[C@@H](CC(C)C)C(=O)N[C@@H](CC(C)C)C(=O)NC(C)(C)C(=O)NC(C)(C)C(=O)NCCC(=O)N[C@@H](C)CN(C)C [Compound 5768, (2S)-2-{[(2S)-1-(7-chloroquinoline-4-carbonyl)pyrrolidin-2-yl]formamido}-N-[(1S)-1-[(1-{[(1S)-1-{[(1S)-1-{[1-({1-[(2-{[(2S)-1-(dimethylamino)propan-2-yl]carbamoyl}ethyl)carbamoyl]-1-methylethyl}carbamoyl)-1-methylethyl]carbamoyl}-3-methylbutyl]carbamoyl}-3-methylbutyl]carbamoyl}-1-methylethyl)carbamoyl]-3-methylbutyl]decanamide] (X19-P[Gly(octyl)]L[Aib]LL[Aib][Aib][βAla]-{NH((S)CH(Me)CH2NMe2)}) | 8.7 | 24.5 | 33.5 | 257 | 373 | – | – |
| CCCCCCCC[C@H](NC(=O)[C@@H]1CCCN1C(=O)c1ccc2[nH]ccc2c1)C(=O)N[C@@H](CC(C)C)C(=O)NC(C)(C)C(=O)N[C@@H](CC(C)C)C(=O)N[C@@H](CC(C)C)C(=O)NC(C)(C)C(=O)NC(C)(C)C(=O)NCCC(=O)N[C@@H](C)CN(C)C [Compound 5911, (2S)-N-[(1S)-1-[(1-{[(1S)-1-{[(1S)-1-{[1-({1-[(2-{[(2S)-1-(dimethylamino)propan-2-yl]carbamoyl}ethyl)carbamoyl]-1-methylethyl}carbamoyl)-1-methylethyl]carbamoyl}-3-methylbutyl]carbamoyl}-3-methylbutyl]carbamoyl}-1-methylethyl)carbamoyl]-3-methylbutyl]-2-{[(2S)-1-(1H-indole-5-carbonyl)pyrrolidin-2-yl]formamido}decanamide] (X20-P[Gly(octyl)]L[Aib]LL[Aib][Aib][βAla]-{NH((S)CH(Me)CH2NMe2)}) | 25600 | 42500 | 14.4 | 34.8 | 34 | – | – |
| CC(C)C[C@H](NC(=O)[C@H](CCC1CCCCC1)NC(=O)[C@@H]1CCCN1C(=O)c1ccc(F)cc1)C(=O)NC(C)(C)C(=O)N[C@@H](CC(C)C)C(=O)N[C@@H](CC(C)C)C(=O)NC(C)(C)C(=O)NC(C)(C)C(=O)NCCC(=O)N[C@@H](C)CN1CCOCC1 [Compound 6028, (2S)-2-[(2S)-2-{2-[(2S)-2-[(2S)-4-cyclohexyl-2-{[(2S)-1-(4-fluorobenzoyl)pyrrolidin-2-yl]formamido}butanamido]-4-methylpentanamido]-2-methylpropanamido}-4-methylpentanamido]-4-methyl-N-[1-methyl-1-({1-methyl-1-[(2-{[(2S)-1-(morpholin-4-yl)propan-2-yl]carbamoyl}ethyl)carbamoyl]ethyl}carbamoyl)ethyl]pentanamide] ({Benzoyl(4-F)}-P[hCha]L[Aib]LL[Aib][Aib][βAla]-X17) | 41900 | 26.3 | 12500 | 418 | 230 | – | – |
| CCCCCCCC[C@H](NC(=O)[C@@H]1CCCN1C(=O)c1ccc[nH]1)C(=O)N[C@@H](CC(C)C)C(=O)NC(C)(C)C(=O)N[C@@H](CC(C)C)C(=O)N[C@@H](CC(C)C)C(=O)NC(C)(C)C(=O)NC(C)(C)C(=O)NCCC(=O)N[C@@H](C)CN(C)C [Compound 5939, (2S)-N-[(1S)-1-[(1-{[(1S)-1-{[(1S)-1-{[1-({1-[(2-{[(2S)-1-(dimethylamino)propan-2-yl]carbamoyl}ethyl)carbamoyl]-1-methylethyl}carbamoyl)-1-methylethyl]carbamoyl}-3-methylbutyl]carbamoyl}-3-methylbutyl]carbamoyl}-1-methylethyl)carbamoyl]-3-methylbutyl]-2-{[(2S)-1-(1H-pyrrole-2-carbonyl)pyrrolidm-2-yl]formamido}decanamide] (Pyrrole2CO-P[Gly(octyl)]L[Aib]LL[Aib][Aib][βAla]-{NH((S)CH(Me)CH2NMe2)}) | 0.1 | 36200 | 36000 | 209 | 42500 | – | – |
| CCCCCCCC[C@H](NC(=O)[C@@H]1CCCN1C(=O)c1ccccc1)C(=O)N[C@@H](CC(C)C)C(=O)NC(C)(C)C(=O)N[C@@H](CC(C)C)C(=O)N[C@@H](CC(C)C)C(=O)NC(C)(C)C(=O)NC(C)(C)C(=O)NCCC(=O)N[C@@H](C)CN(C)C [Compound 5649, (2S)-2-{[(2S)-1-benzoylpyrrolidin-2-yl]formamido}-N-[(1S)-1-[(1-{[(1S)-1-{[(1S)-1-{[1-({1-[(2-{[(2S)-1-(dimethylamino)propan-2-yl]carbamoyl}ethyl)carbamoyl]-1-methylethyl}carbamoyl)-1-methylethyl]carbamoyl}-3-methylbutyl]carbamoyl}-3-methylbutyl]carbamoyl}-1-methylethyl)carbamoyl]-3-methylbutyl]decanamide] (Bz-P[Gly(octyl)]L[Aib]LL[Aib][Aib][βAla]-{NH((S)CH(Me)CH2NMe2)}) | 0.7 | 2.1 | 3.5 | 27.2 | 8.8 | – | – |
| CCCCCCCC[C@H](NC(=O)[C@@H]1CCCN1C(=O)c1cc2ccc(OC)cc2oc1=O)C(=O)N[C@@H](CC(C)C)C(=O)NC(C)(C)C(=O)N[C@@H](CC(C)C)C(=O)N[C@@H](CC(C)C)C(=O)NC(C)(C)C(=O)NC(C)(C)C(=O)NCCC(=O)N[C@@H](C)CN(C)C [Compound 5769, (2S)-N-[(1S)-1-[(1-{[(1S)-1-{[(1S)-1-{[1-({1-[(2-{[(2S)-1-(dimethylamino)propan-2-yl]carbamoyl}ethyl)carbamoyl]-1-methylethyl}carbamoyl)-1-methylethyl]carbamoyl}-3-methylbutyl]carbamoyl}-3-methylbutyl]carbamoyl}-1-methylethyl)carbamoyl]-3-methylbutyl]-2-{[(2S)-1-(7-methoxy-2-oxo-2H-chromene-3-carbonyl)pyrrolidin-2-yl]formamido}decanamide] (X16-P[Gly(octyl)]L[Aib]LL[Aib][Aib][βAla]-{NH((S)CH(Me)CH2NMe2)}) | 2.8 | 5.3 | 8.1 | 216 | 167 | – | – |
| CCCCCCCC[C@H](NC(=O)[C@@H]1CCCN1C(=O)c1ccc2cccnc2c1)C(=O)N[C@@H](CC(C)C)C(=O)NC(C)(C)C(=O)N[C@@H](CC(C)C)C(=O)N[C@@H](CC(C)C)C(=O)NC(C)(C)C(=O)NC(C)(C)C(=O)NCCC(=O)N[C@@H](C)CN(C)C [Compound 5938, (2S)-N-[(1S)-1-[(1-{[(1S)-1-{[(1S)-1-{[1-({1-[(2-{[(2S)-1-(dimethylamino)propan-2-yl]carbamoyl}ethyl)carbamoyl]-1-methylethyl}carbamoyl)-1-methylethyl]carbamoyl}-3-methylbutyl]carbamoyl}-3-methylbutyl]carbamoyl}-1-methylethyl)carbamoyl]-3-methylbutyl]-2-{[(2S)-1-(quinoline-7-carbonyl)pyrrolidin-2-yl]formamido}decanamide] (X15-P[Gly(octyl)]L[Aib]LL[Aib][Aib][βAla]-{NH((S)CH(Me)CH2NMe2)}) | 0.5 | 13200 | 42400 | 37.8 | 42400 | – | – |
| CCCCCCCCCCCCCCCCOP(=O)([O-])OCC[N+](C)(C)C [Miltefosine] | – | – | – | 1200 | – | 118 | – |
| CCCCCCCC[C@H](NC(=O)[C@H](C)NC(=O)/C=C/[C@@H](C)CC)C(=O)N[C@H](C(=O)NC(C)(C)C(=O)N[C@@H](CC(C)C)C(=O)N[C@@H](CC(C)C)C(=O)NC(C)(C)C(=O)NC(C)(C)C(=O)NCCC(=O)N[C@@H](C)CN(C)C)[C@H](O)C(C)C [Compound 5527, (2S)-N-[(1S,2R)-1-[(1-{[(1S)-1-{[(1S)-1-{[1-({1-[(2-{[(2S)-1-(dimethylamino)propan-2-yl]carbamoyl}ethyl)carbamoyl]-1-methylethyl}carbamoyl)-1-methylethyl]carbamoyl}-3-methylbutyl]carbamoyl}-3-methylbutyl]carbamoyl}-1-methylethyl)carbamoyl]-2-hydroxy-3-methylbutyl]-2-[(2S)-2-[(2E,4S)-4-methylhex-2-enamido]propanamido]decanamide] ({Hexenoyl(2E,4S-Me)}-A[Gly(octyl)][Leu(3R-OH)][Aib]LL[Aib][Aib][βAla]-{NH((S)CH(Me)CH2NMe2)}) | 1.8 | 8.4 | 1.1 | – | 67.9 | – | 0.274 |
| CCCCCCCC[C@H](NC(=O)[C@@H]1CCCN1C(=O)/C=C/[C@@H](C)CC)C(=O)N[C@H](C(=O)NCCC(=O)N[C@@H](C)CN(C)C)[C@H](O)C(C)C [Compound 5523, (2S)-N-[(1S,2R)-1-[(2-{[(2S)-1-(dimethylamino)propan-2-yl]carbamoyl}ethyl)carbamoyl]-2-hydroxy-3-methylbutyl]-2-{[(2S)-1-[(2E,4S)-4-methylhex-2-enoyl]pyrrolidin-2-yl]formamido}decanamide] | 2440 | 4750 | 482 | – | 5730 | – | 8.61 |
